Entries after “also recorded” stand apart in the source; their conditions may differ. Like-named read-outs stand apart in the source and are kept apart here. Where a SMILES comes first, the peptide text is derived from it.
Key:
[1] = molecular target: T1, immobilized Aβ16 (Homo sapiens, UniProt P05067); assay: Direct binding assay: surface plasmon resonance, tetrapeptides over immobilized Aβ16-G4-C; conditions: for Ka × 10^-2 M^-1: 10 mM HEPES pH 6.8, Ka = kon/koff, mean±SD of three independent measurements; for koff: read-out: koff × 10^-3 s^-1
T1 construct: purchased Biopeptide (San Diego, CA, USA); host or cells: chemical synthesis
Method: Surface plasmon resonance (SPR) was utilized to detect the direct binding of the tetrapeptides to immobilized Aβ16-G4-C. All SPR experiments were carried out on a BIAcore T100 instrument (GE Healthcare, IL, USA). Research grade sensor chips CM5 carrying the hydrophilic carboxymethylated dextran matrix, HEPES Buffered Saline (HBS) buffer (10 mM HEPES (4-(2-hydroxyethyl)-1-piperazineethanesulfonic acid)), pH 7.4, 150 mM NaCl, 3 mM EDTA, 0.005% surfactant P20), 1-ethyl-3-(3-dimethylaminopropyl)-carbodiimide (EDC), N-hydroxysuccinimide (NHS), 2-(2-pyridinyldithio)-ethaneamine (PDEA), and cysteine were purchased from Biacore (GE, Boston, MA, USA). All other chemicals and solvents were of HPLC-grade or better and were obtained from MilliporeSigma (St. Louis, MO, USA). All buffers were filtered (0.45 μm, nylon) prior to use.
Attachment of the synthetic peptide Aβ16-G4-C to the CM5 chip was performed according to the thiol bond formation protocol described in the Sensor surface handbook (GE Healthcare, Chicago, IL, USA). The carboxymethyl dextran matrix was activated by injection of a 1:1 mixture of EDC and NHS (30 μL, 400 mM EDC, 100 mM NHS) with the following injection of an 80 mM PDEA solution in 0.1 M sodium borate (pH 8.5). The Aβ16-G4-C solution was then injected into the activated flow cell (0.05 mg/mL peptide in 10 mM sodium acetate buffer, pH 4.5). Unreacted disulfide groups on the CM5 chip surface were capped with a 50 mM cysteine solution in 0.1 M sodium acetate buffer (pH 4.0). The change corresponding to the immobilization of Aβ16-G4-C was 1023 response units (RU). The flow rate used for all immobilization steps was 5 μL/min. An unmodified dextran surface was used as a reference surface.
Then, the binding affinities of the immobilized Aβ16-G4-C to the following peptide-analytes were measured. Samples of Ac-HAEE-NH2 and other tetrapeptides were prepared by dilution of respective stock solutions in the running buffer (10 mM HEPES, pH 6.8). Each analyte was diluted to different concentrations (0 μM, 50 μM, 100 μM, 200 μM, 500 μM, 1000 μM, 1500 μM, 2000 μM) and injected in multichannel mode (volume 50 μL and rate 10 μL/min) during 300 s. Then, the chip surface was exposed to the running buffer without analyte for 120 s. After each injection of the analyte, the surface was regenerated with 5 μL of the regeneration buffer (HBS buffer containing 10 mM HEPES, 3 mM EDTA, 0.005% surfactant P20 and 150 mM NaCl, pH 7.4). The signal from the reference surface was subtracted from the raw data, obtained from the flow cell with the immobilized ligand.
The kinetic rate constants were calculated from the sensorgrams by globally fitting the response curves obtained at various analyte concentrations using the Langmuir model (1:1 binding) in the BIAevaluation 4.1 program. The association (kon) and the dissociation (koff) rate constants were fitted simultaneously (1), dR/dt = kon C (Rmax − R) − koff R(1) where R stands for the biosensor response of the formed complex, C is the concentration of the analyte, and Rmax is the maximal theoretical value of the binding response for a given analyte.
Using the obtained data dissociation (Kd) constant was calculated from the ratios of the association (kon) and dissociation (koff) rate constants: Kd = koff/kon, Ka = kon/koff.

[2] = tested on: amyloid load in the brains; design: method as in PMID 26402624; conditions: injections; cited from earlier work
[3] = tested on: rat α4β2 nAChR; assay: Two-electrode voltage clamp in Xenopus laevis oocytes expressing α4β2 nAChR; type: cell-based; conditions: for effect of washout with the peptide on current amplitude after Aβ42: 3 min, after 10 µM Aβ42
Method: Two-electrode voltage clamp electrophysiology on the α4β2 nAChR expressed in Xenopus laevis oocytes was performed according to previously published protocols [7]. Stage V ± VI Xenopus laevis oocytes were defolliculated with 1 mg/mL collagenase Type I (Life Technologies, Carlsbad, CA, USA) at room temperature (21–24 °C) for 2 h in Barth’s solution without calcium (88.0 mM NaCl, 1.1 mM KCl, 2.4 mM NaHCO3, 0.8 mM MgSO4, 15.0 mM HEPES/NaOH, pH 7.6). The oocytes were stored in Barth’s solution with calcium for 72–120 h (88.0 mM NaCl, 1.1 mM KCl, 2.4 mM NaHCO3, 0.3 mM Ca(NO3)2, 0.4 mM CaCl2, 0.8 mM MgSO4, 15.0 mM HEPES/NaOH, pH 7.6) supplemented with 63.0 μg/mL penicillin-G sodium salt, 40.0 μg/mL streptomycin sulfate.
Oocytes were injected with 3 ng plasmids coding the rat α4 and β2 nAChR subunits (pcDNA3.1 vector) in a molar ratio of 1:1 using an Auto-Nanoliter Injector NanoJect-2 (Drummond Scientific Company, Broomall, PA, USA) in a total injection volume of 23 nL. After injection, oocytes were incubated at 18 °C in Barth’s solution with calcium for 48–120 h. Electrophysiological recordings were made using a Turbo TEC-03X amplifier (npi electronic GmbH, Tamm, Germany) and WinWCP recording software (University of Strathclyde, Glasgow, UK). Oocytes were placed in a small recording chamber with a working volume of 50 μL and 100 μL of agonist (acetylcholine) solution in Barth’s buffer were applied to an oocyte. […] To allow receptor recovery from desensitization, the oocytes were superfused for 5–10 min with buffer (1 mL/min) between ligand applications. Electrophysiological recordings were performed at a holding potential of −60 mV.
Data are presented as means of at least three independent experiments ± SD. The comparison of data groups in electrophysiology studies was performed with ordinary one-way ANOVA. Post-hoc analysis was performed with the Tukey test. Shapiro-Wilk test was used to confirm the normality of the dataset. Statistical analysis was performed using GraphPad Prism 8.4.1 software (GraphPad Software Inc., CA, USA).

[4] = tested on: Aβ; conditions: previously shown; reference not given; cited from earlier work
[5] = molecular target: Aβ16-G4-C, [Ac]-…-[NH2]; assay: SPR; Aβ16-G4-C immobilised by thiol coupling on a CM5 chip (1023 RU), BIAcore T100; tetrapeptides injected at 0-2000 μM, 10 μL/min, 300 s; running buffer 10 mM HEPES, pH 6.8; global fit, Langmuir 1:1 model; Kd = koff/kon
[6] = Table S2, SPR, immobilized Aβ16, 25 °C
[7] = Table S2, SPR, immobilized Aβ16, 25 °C, 10 mM HEPES pH 6.8, mean±SD of three independent measurements, read-out: Kd × 10^4 M
[8] = Table S2, SPR, immobilized Aβ16, 25 °C, 10 mM HEPES pH 6.8, mean±SD of three independent measurements
[9] = Table S2, SPR, immobilized Aβ16, 25 °C, 10 mM HEPES pH 6.8, mean±SD of three independent measurements, read-out: kon × M^-1 s^-1
[10] = SPR, immobilized Aβ16, 10 mM HEPES pH 6.8
[11] = SPR, BIAcore T100, Aβ16-G4-C on CM5 chip, running buffer 10 mM HEPES pH 6.8, 1:1 Langmuir global fit, Kd = koff/kon, read-out: dissociation constant Kd

T1 sequence (P05067 with tags, fused parts or gaps limits assumed): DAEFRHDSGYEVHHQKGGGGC

Molecule | Ka × 10^-2 M^-1 [1, 6] | Kd [1, 7] [µM] | koff [1, 8] [s⁻¹] | kon [1, 9] [M⁻¹ s⁻¹] | further results
CC(=O)N[C@@H](CC(=O)O)C(=O)N[C@@H](CCC(=O)O)C(=O)N[C@@H](C)C(=O)N[C@@H](CCCNC(=N)N)C(N)=O [#12, Ac-DEAR-NH2] (Ac-DEAR-NH2) | 5.1±0.2 × 10^-2 M^-1 | 1980 ± 70 | 0.00709 ± 9e-05 | 3.58 ± 0.08 | –
CC(=O)N[C@@H](CCC(=O)O)C(=O)N[C@@H](CC(=O)O)C(=O)N[C@@H](C)C(=O)N[C@@H](CCCCN)C(N)=O [#16, Ac-EDAK-NH2] (Ac-EDAK-NH2) | 0.141±0.009 × 10^-2 M^-1 | – | 0.0097 ± 0.0002 | 0.136 ± 0.006 | –
CC(=O)N[C@@H](CC(=O)O)C(=O)N[C@@H](CC(=O)O)C(=O)N[C@@H](C)C(=O)N[C@@H](CCCCN)C(N)=O [#4, Ac-DDAK-NH2] (Ac-DDAK-NH2) | 7.3±0.3 × 10^-2 M^-1 | 1370 ± 50 | 0.0062 ± 0.0001 | 4.57 ± 0.09 | –
Ac-KAEE-NH2 | – | – | – | – | binding to Aβ16 in the SPR assay (in words) [1, 10]: no binding was detected at all
CC(=O)N[C@@H](CCC(=O)O)C(=O)N[C@@H](CC(=O)O)C(=O)N[C@@H](C)C(=O)N[C@@H](CCCNC(=N)N)C(N)=O [#18, Ac-EDAR-NH2] (Ac-EDAR-NH2) | 0.28±0.03 × 10^-2 M^-1 | – | 0.0047 ± 0.0001 | 0.13 ± 0.01 | –
CC(=O)N[C@@H](Cc1c[nH]cn1)C(=O)N[C@@H](C)C(=O)N[C@@H](CC(=O)O)C(=O)N[C@@H](CC(=O)O)C(N)=O [#1, Ac-HADD-NH2] (Ac-HADD-NH2) | 3.08±0.08 × 10^-2 M^-1 | 3250 ± 90 | 0.0104 ± 2e-05 | 3.2 ± 0.08 | –
CC(=O)N[C@@H](CCCCN)C(=O)N[C@@H](C)C(=O)N[C@@H](CCC(=O)O)C(=O)N[C@@H](CC(=O)O)C(N)=O [#9, Ac-KAED-NH2] (Ac-KAED-NH2) | 3.1±0.6 × 10^-2 M^-1 | 3300 ± 700 | 0.019 ± 0.001 | 5.7 ± 0.9 | –
CC(=O)N[C@@H](CCCNC(=N)N)C(=O)N[C@@H](C)C(=O)N[C@@H](CC(=O)O)C(=O)N[C@@H](CC(=O)O)C(N)=O [Ac-RADD-NH2] (Ac-RADD-NH2) | 800±100 × 10^-2 M^-1 | – | 0.00024 ± 4e-05 | 18.5 ± 0.1 | Kd [1, 11]: 13 µM
CC(=O)N[C@@H](CCCCN)C(=O)N[C@@H](C)C(=O)N[C@@H](CC(=O)O)C(=O)N[C@@H](CCC(=O)O)C(N)=O [#15, Ac-KADE-NH2] (Ac-KADE-NH2) | 2.2±0.1 × 10^-2 M^-1 | 4500 ± 300 | 0.0096 ± 0.0002 | 2.2 ± 0.1 | –
CC(=O)N[C@@H](Cc1c[nH]cn1)C(=O)N[C@@H](C)C(=O)N[C@@H](CCC(=O)O)C(=O)N[C@@H](CCC(=O)O)C(N)=O [Ac-HAEE-NH2] (Ac-HAEE-NH2) | 110±40 × 10^-2 M^-1 | – | 3.5e-05 ± 8e-06 | – | amyloid load in the brains of AD model mice [2]: effectively reduce the amyloid load; Kd [1, 11]: 90 µM; kon ([1]; SPR, immobilized Aβ16, 10 mM HEPES pH 6.8, read-out: kon): 0.37 M⁻¹ s⁻¹; effect of washout with the peptide on current amplitude after Aβ42 ([3]; 25 µM in washout buffer, 100 µM ACh): did not affect the current amplitude; effect of washout with the peptide on current amplitude after Aβ42 ([3]; 50 µM in washout buffer, 100 µM ACh): less so at 50 µM; effect on Aβ42-induced inhibition when co-applied with Aβ42 ([3]; 100 µM Ac-HAEE-NH2 (10-times molar excess) with 10 µM Aβ42, 3 min pre-incubation, 100 µM ACh): the degree of inhibition was reduced significantly; also recorded: reduced the inhibitory effect of Aβ42 by half; leakage current after washout with peptide-containing buffer ([3]; 100 µM Ac-HAEE-NH2 washout after 10 µM Aβ42 and buffer washout): reduced the leakage current almost to the control values; effect of washout with the peptide on current amplitude after Aβ42 ([3]; 100 µM in washout buffer, 100 µM ACh): fully revoked the inhibition induced by Aβ42; also recorded: most effective at 100 µM; amplitude of ACh-evoked currents after washout with the peptide (over the range tested) ([3]; 25–100 µM in washout buffer after 10 µM Aβ42, 100 µM ACh): dose-dependently returned to the control levels; also recorded: completely restored the receptor response; effect on ACh-evoked current in the absence of Aβ42 ([3]; α4β2 nAChR-expressing oocytes): did not affect ACh-evoked current; currents induced by the peptide itself ([3]; α4β2 nAChR-expressing oocytes, no ACh): did not induce any currents; zinc-dependent oligomerization of Aβ [4]: prevent zinc-dependent oligomerization of Aβ
CC(=O)N[C@@H](CCCNC(=N)N)C(=O)N[C@@H](C)C(=O)N[C@@H](CCC(=O)O)C(=O)N[C@@H](CCC(=O)O)C(N)=O [Ac-RAEE-NH2] (Ac-RAEE-NH2) | 1.3±0.1 × 10^-2 M^-1 | 7700 ± 600 | 0.0112 ± 8e-05 | 1.5 ± 0.1 | binding to Aβ16 in the SPR assay (in words) [1, 10]: two orders of magnitude weaker binding than Ac-HAEE-NH2
CC(=O)N[C@@H](CC(=O)O)C(=O)N[C@@H](CC(=O)O)C(=O)N[C@@H](C)C(=O)N[C@@H](Cc1c[nH]cn1)C(N)=O [#2, Ac-DDAH-NH2] (Ac-DDAH-NH2) | – | – | 0.0154 ± 0.0001 | 0.52 ± 0.01 | Kd ([1]; read-out: Ka × 10^-2 M^-1 (converted)): 2970 µM
Ac-HAEE-NH2 [Ac-HAEE-NH2 tetrapeptide] | – | – | – | – | Kd [5]: 90 µM; koff [5]: 4e-05 s⁻¹; kon [5]: 0.37 M⁻¹ s⁻¹
Ac-RADD-NH2 [Ac-RADD-NH2] | – | – | – | – | Kd [5]: 13 µM
